# In patent US20100204295A1, “TREATMENT OF ALLERGIC DISEASE WITH IMMUNOMODULATOR COMPOUNDS” (SCICLONE PHARMACEUTICALS, INC., priority 2007, published 2010):
# “And” between values parts separate entries of the source, which are not always exact repeats. Equal values may be shown once. “Also recorded” adds a separate entry of the source.
# Columns and labels:
# [1] = tested on: goblet cells in the epithelium of the bronchi; experiment: Percentage of goblet cells in the epithelium of the bronchi, ovalbumin asthma model; assay type: in vivo, mice of the Balb/C line
# Excerpt: Female, non-pathogenic mice of the Balb/C line (“Pushchtino” laboratory animal breeders) were kept under conditions of an SPF-vivarium at a constant temperature, 12-hour day/night cycle, and received sterile feed and water ad libitum. In two series of experiments, mice from 6-8 weeks and 18-20 weeks of age were used at the beginning of the experiment, respectively. The animals were immunized twice at 5-day intervals with an ovalbumin solution (Sigma) in an adjuvant based on ammonium sulfate at a dosage of 8 μg per mouse. SCV-07 was administered intra-abdominally in a volume of 200 μL at a dosage of 0.1 or 1.0 μg/kg in PBS once a day from 6 through 11 days after the first immunization. The control group received physiological saline on the same days. Each group comprised 6 to 10 animals. On the 12th, 16th and 20th days after the first immunization, the animals were then placed in a hermetic box, in which an aerosol of 1% ovalbumin solution (OvA) in PBS was generated with an ultrasonic nebulizer LD-207U (Little Doctor) for 1 minute with continuous mixing of air. The duration of exposure of the animals to the aerosol was 15 minutes. […] The number of goblet and epithelial cells on the sections of the bronchi were calculated in no less than five visual fields on sections from the lungs from each animal and expressed as the percentage of the total number of cells.
# [2] = tested on: infiltration of the lung tissue; experiment: Morphometric peribronchial and perivascular infiltration of lung tissue, ovalbumin asthma model; assay type: in vivo, mice of the Balb/C line; conditions: age group not given
# Excerpt: Female, non-pathogenic mice of the Balb/C line (“Pushchtino” laboratory animal breeders) were kept under conditions of an SPF-vivarium at a constant temperature, 12-hour day/night cycle, and received sterile feed and water ad libitum. In two series of experiments, mice from 6-8 weeks and 18-20 weeks of age were used at the beginning of the experiment, respectively. The animals were immunized twice at 5-day intervals with an ovalbumin solution (Sigma) in an adjuvant based on ammonium sulfate at a dosage of 8 μg per mouse. SCV-07 was administered intra-abdominally in a volume of 200 μL at a dosage of 0.1 or 1.0 μg/kg in PBS once a day from 6 through 11 days after the first immunization. The control group received physiological saline on the same days. Each group comprised 6 to 10 animals. On the 12th, 16th and 20th days after the first immunization, the animals were then placed in a hermetic box, in which an aerosol of 1% ovalbumin solution (OvA) in PBS was generated with an ultrasonic nebulizer LD-207U (Little Doctor) for 1 minute with continuous mixing of air. The duration of exposure of the animals to the aerosol was 15 minutes. Analysis of the severity of experimental allergic asthma was carried out 24 hours after the last aerosol exposure. […] Sections of […] were prepared. The sections were stained with hematoxylin-eosin to evaluate the intensity of cell infiltration and Schiff-iodic acid to count the number of goblet cells. Quantitative evaluation of the peribronchial and perivascular infiltration was accomplished morphometrically with the Scion Image program package. Three bronchi and three vessels were analyzed on sections of the lungs from each animal. The area of the infiltration was calculated as the difference between the area of the tissue containing bronchi or vessels and the infiltration surrounding it, and the area of the vessel or bronchus itself. The indices of infiltration were calculated as the ratio of the area of the infiltration to the area of the vessel or bronchus.
# [3] = tested on: immediate allergic reaction to OVA aerosol; experiment: Immediate response to aerosol, comments recorded during aerosolization, guinea pig model; assay type: in vivo, Dunkin-Hartley guinea pigs; conditions: one animal per line, listed as SCV
# Procedure: Female Dunkin-Hartley guinea pigs (200-350 g) were purchased from Charles River, Kingston, New York facility, Barrier […]. Animals were shipped to Duluth, Minn., and held in our animal facility for 5-7 days prior to beginning the experiment. Experimental treatment groups are outlined in Table 7. Animals were sensitized on day 0 ip with 50 mg/kg OVA. On Days 17, 18, 19, and 20, animals received an ip injection between 8 and 10 am with PBS, SCV-07 at 1 ug/kg, or SCV-07 at 10 ug/kg (Peptide treatment). Between 8 and 10 a.m. on Day 21, animals were administered peptide 2 hours before OVA or saline (NSS) aerosol challenge. 30 min before OVA or NSS aerosol challenge each animal was injected ip with an antihistamine (6.1 mg/kg pyrilamine maleate) to prevent death due to the anaphylactic response that accompanies aerosol OVA challenge. Animals were exposed to aerosol in pairs with either 1% OVA solution or NSS for 5 min in a plexiglass chamber (22×22×29 cm) using a DeVilbiss Model 35B Ultrasonic Nebulizer. Animals were observed during the total 5 min aerosolization and comments recorded. Within 22-24 hours after challenge, animals were euthanized, bled by cardiac puncture, lavaged and lung lobes removed for measurement of cellular infiltration. At the time of OVA or NSS challenge and euthanasia, animal weights ranged from approximately 350-550 g, with the average weight approximately 420 g. This experimental protocol is similar to that used in previously published studies (Regal and Fraser, 1996; Regal et al., 2000). The experimenter was not blinded to the treatment. […] In general, animals sensitized and challenged with OVA and antihistamine pre-treated will not die from the allergen challenge, but will experience labored breathing and oftentimes coughing and gasping. All 7 animals in the PBS OVA treatment group had some visible reaction as expected. The remarkable finding was the number of animals in the SCV 1 OVA and SCV 10 OVA treatment groups that had no apparent reaction to the OVA aerosol. […] The obvious speculation is that SCV-07 attenuates the immediate bronchoconstriction to allergen challenge. Follow-up experiments are definitely indicated by this observation.
# [4] = tested on: thymocyte and lymphocyte proliferation; conditions: cited from earlier work
smiles,measurement,setting,value
"N[C@H](CCC(=O)N[C@@H](Cc1c[nH]c2ccccc12)C(=O)O)C(=O)O [SCV-07, γ-D-glutamyl-L-tryptophan]",Reduction in the percentage of goblet cells in the epithelium of the bronchi vs control,"[1]; 0.1 μg/kg, significant vs control",more than two-fold reduction
same,"% goblet cells of total number of cells (median, minimum-maximum)","[1]; animals 6 to 8 weeks, 1 μg/kg",36.5 (3-92) %
same,"Index of peribronchial infiltration, conventional units",[2]; 0.1 μg/kg,0.39 ± 0.19 conventional units
same,"Index of perivascular infiltration, conventional units",[2]; 0.1 μg/kg,1.67 ± 1.08 conventional units
same,"Index of peribronchial infiltration, conventional units",[2]; 1 μg/kg,0.35 ± 0.14 conventional units
same,"Index of perivascular infiltration, conventional units",[2]; 1 μg/kg,1.48 ± 1.02 conventional units
same,Comment recorded during aerosolization,"[3]; SCV 1 NSS: SCV-07 1 ug/kg ip, NSS aerosol",huddling in corner; also recorded: no rx
same,Comment recorded during aerosolization,"[3]; SCV 1 OVA: SCV-07 1 ug/kg ip, OVA aerosol",slight cough 1x? and 1 cough?
same,Comment recorded during aerosolization,"[3]; SCV 10 NSS: SCV-07 10 ug/kg ip, NSS aerosol","huddling in corner, no rx"
same,Comment recorded during aerosolization,"[3]; SCV 10 OVA: SCV-07 10 ug/kg ip, OVA aerosol",no rx (3×) and slight cough and 1 cough? and deeper breathing (2×)
same,Con-A-induced thymocyte and lymphocyte proliferation,[4],increases
